Results: US8697739B2, “Bicyclic acetyl-CoA carboxylase inhibitors and uses thereof” (Novartis AG, priority 2010, dated 2014)

These compounds were tested against T1, human acetyl-CoA carboxylase 2 (ACC2) (Homo sapiens, UniProt O00763) (assay: Acetyl-CoA carboxylase enzyme assay (malonyl-CoA formation by LC/MS/MS)). Settings: recombinant human ACC2 (aa 144-2458); read-out: IC50 ACC2.
T1 construct: The cDNA encoding amino acids 144 to 2458 of human acetyl-CoA carboxylase 2; made in house; host or cells: Sf9 insect cells (baculovirus, pFastBac1)
Type: biochemical
Outline: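 Malonyl-CoA formation was read by LC/MS/MS MRM against a [13C3]-malonyl-CoA internal standard, after acetic acid quench. The enzyme was baculovirus/Sf9-expressed human ACC2 residues 144–2458, given 15 minutes room-temperature compound preincubation in HEPES pH 7.5 buffer with MgCl2, citrate and DTT. Substrate solution held 50 μM acetyl-CoA, 120 μM ATP and 2 mM KHCO3.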

T1 sequence (O00763 144-2458): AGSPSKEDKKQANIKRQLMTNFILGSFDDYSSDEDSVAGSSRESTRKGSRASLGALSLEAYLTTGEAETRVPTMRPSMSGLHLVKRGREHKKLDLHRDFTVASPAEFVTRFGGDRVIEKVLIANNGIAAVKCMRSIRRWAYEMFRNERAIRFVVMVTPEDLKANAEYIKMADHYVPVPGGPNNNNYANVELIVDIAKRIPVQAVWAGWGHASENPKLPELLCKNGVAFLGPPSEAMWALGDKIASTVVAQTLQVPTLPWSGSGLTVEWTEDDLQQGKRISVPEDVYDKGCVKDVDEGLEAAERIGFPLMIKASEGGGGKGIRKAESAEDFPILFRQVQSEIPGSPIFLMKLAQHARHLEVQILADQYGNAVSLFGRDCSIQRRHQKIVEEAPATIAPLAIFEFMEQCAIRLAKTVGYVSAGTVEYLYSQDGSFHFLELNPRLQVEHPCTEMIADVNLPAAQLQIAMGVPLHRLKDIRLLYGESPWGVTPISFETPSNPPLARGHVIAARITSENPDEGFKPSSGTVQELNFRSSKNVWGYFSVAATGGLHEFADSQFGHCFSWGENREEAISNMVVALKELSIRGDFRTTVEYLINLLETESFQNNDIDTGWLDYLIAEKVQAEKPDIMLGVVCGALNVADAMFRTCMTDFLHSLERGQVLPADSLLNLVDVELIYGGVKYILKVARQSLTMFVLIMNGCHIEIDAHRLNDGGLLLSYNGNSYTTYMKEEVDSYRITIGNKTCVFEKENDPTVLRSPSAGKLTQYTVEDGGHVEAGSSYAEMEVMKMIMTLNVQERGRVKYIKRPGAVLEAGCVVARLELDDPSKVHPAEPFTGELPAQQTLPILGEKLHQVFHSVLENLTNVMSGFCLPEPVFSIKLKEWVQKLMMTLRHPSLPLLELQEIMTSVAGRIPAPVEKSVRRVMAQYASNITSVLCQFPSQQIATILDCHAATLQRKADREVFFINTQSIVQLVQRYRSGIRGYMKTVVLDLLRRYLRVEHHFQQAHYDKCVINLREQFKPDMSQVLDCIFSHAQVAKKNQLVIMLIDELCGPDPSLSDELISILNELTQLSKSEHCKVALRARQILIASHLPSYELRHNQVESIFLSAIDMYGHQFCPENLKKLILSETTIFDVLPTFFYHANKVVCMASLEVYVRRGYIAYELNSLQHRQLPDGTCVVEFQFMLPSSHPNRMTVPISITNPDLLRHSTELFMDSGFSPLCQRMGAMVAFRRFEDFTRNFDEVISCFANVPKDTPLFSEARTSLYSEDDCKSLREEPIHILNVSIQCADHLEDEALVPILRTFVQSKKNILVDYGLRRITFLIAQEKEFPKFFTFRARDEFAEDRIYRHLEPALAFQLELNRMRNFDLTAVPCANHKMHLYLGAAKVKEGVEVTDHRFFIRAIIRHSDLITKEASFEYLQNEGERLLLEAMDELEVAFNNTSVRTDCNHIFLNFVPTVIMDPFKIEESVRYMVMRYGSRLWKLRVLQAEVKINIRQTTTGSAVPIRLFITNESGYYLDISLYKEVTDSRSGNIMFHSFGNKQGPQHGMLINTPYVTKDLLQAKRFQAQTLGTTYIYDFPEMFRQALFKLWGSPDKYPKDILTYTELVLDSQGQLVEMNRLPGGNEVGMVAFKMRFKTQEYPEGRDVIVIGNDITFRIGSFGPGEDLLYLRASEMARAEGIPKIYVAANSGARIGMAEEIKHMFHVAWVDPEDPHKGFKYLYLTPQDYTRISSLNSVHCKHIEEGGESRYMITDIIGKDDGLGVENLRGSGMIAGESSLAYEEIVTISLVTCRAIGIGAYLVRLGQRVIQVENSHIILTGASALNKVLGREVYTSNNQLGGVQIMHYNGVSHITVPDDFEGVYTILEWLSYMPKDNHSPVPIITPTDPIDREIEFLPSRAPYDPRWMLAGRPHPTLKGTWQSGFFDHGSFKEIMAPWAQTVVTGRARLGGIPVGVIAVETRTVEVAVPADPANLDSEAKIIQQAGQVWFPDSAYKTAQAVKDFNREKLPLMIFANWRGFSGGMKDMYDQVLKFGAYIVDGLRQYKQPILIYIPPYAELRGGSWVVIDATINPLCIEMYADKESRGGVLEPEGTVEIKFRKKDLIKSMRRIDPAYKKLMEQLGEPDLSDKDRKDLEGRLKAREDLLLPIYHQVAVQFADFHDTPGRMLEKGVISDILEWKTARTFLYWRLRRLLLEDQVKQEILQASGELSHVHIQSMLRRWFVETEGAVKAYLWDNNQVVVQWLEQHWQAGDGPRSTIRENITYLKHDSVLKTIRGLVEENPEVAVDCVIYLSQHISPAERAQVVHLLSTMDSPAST

Row | SMILES | IC50 [µM]
1 | CC(C)OC(=O)c1ccc(NS(=O)(=O)c2ccc3[nH]c(Nc4ccc(N5CCOCC5)nc4)nc3c2)cc1 [Example 539, isopropyl 4-(2-(6-morpholinopyridin-3-ylamino)-1H-benzo[d]imidazole-5-sulfonamido)benzoate] | 0.221
2 | COCCc1ccc(-c2[nH]c3cc(S(=O)(=O)N[C@H]4CC[C@H](C(=O)N5CCOC[C@@H]5C5CC5)CC4)ccc3c2Cl)cc1 [Example 471, 3-chloro-N-((1S,4r)-4-((S)-3-cyclopropylmorpholine-4-carbonyl)cyclohexyl)-2-(4-(2-methoxyethyl)phenyl)-1H-indole-6-sulfonamide] | < 0.01
3 | COCc1ccc(-c2cc3ccc(S(=O)(=O)N[C@H]4CC[C@H](C(=O)N5CCOC[C@@H]5C(C)C)CC4)cc3n2C)cc1 [Example 438, N-((1S,4r)-4-((S)-3-isopropylmorpholine-4-carbonyl)cyclohexyl)-2-(4-(methoxymethyl)phenyl)-1-methyl-1H-indole-6-sulfonamide] | < 0.01
4 | Cn1c(-c2ccc(CCC(=O)O)cc2)c(Cl)c2ccc(S(=O)(=O)N[C@H]3CC[C@H](C(=O)N4CCCCC4)CC3)cc21 [Example 361, 3-(4-(3-chloro-1-methyl-6-(N-((1r,4r)-4-(piperidine-1-carbonyl)cyclohexyl)sulfamoyl)-1H-indol-2-yl)phenyl)propanoic acid] | 0.01
5 | COCCOc1ccc(-c2cc3ccc(S(=O)(=O)N[C@H]4CC[C@H](C(=O)N5CCOC[C@@H]5C(C)C)CC4)cc3n2C)cc1 [Example 447, N-((1S,4r)-4-((S)-3-isopropylmorpholine-4-carbonyl)cyclohexyl)-2-(4-(2-methoxyethoxy)phenyl)-1-methyl-1H-indole-6-sulfonamide] | 0.025
6 | Cc1cc(CO)ccc1-c1cc2ccc(S(=O)(=O)N[C@H]3CC[C@H](C(=O)N4CCNC(C(F)(F)F)C4)CC3)cc2[nH]1 (stereo partly drawn) [Example 317, 2-(4-(hydroxymethyl)-2-methylphenyl)-N-((1r,4r)-4-(3-(trifluoromethyl)piperazine-1-carbonyl)cyclohexyl)-1H-indole-6-sulfonamide] | 0.025
7 | C[C@@H](OC(=O)C1(C)CCC(NS(=O)(=O)c2ccc3c(ccn3C)c2)CC1)c1ccccc1 (stereo partly drawn) [Example 398, (R)-1-phenylethyl 1-methyl-4-(1-methyl-1H-indole-5-sulfonamido)cyclohexanecarboxylate] | < 0.01
8 | Cn1c(C2CC2)c(C#N)c2ccc(S(=O)(=O)N[C@H]3CC[C@H](C(=O)N4CCN[C@@H](C(F)(F)F)C4)CC3)cc21 [Example 380, 3-cyano-2-cyclopropyl-1-methyl-N-((1R,4r)-4-((R)-3-(trifluoromethyl)piperazine-1-carbonyl)cyclohexyl)-1H-indole-6-sulfonamide] | 0.075
9 | CCN(C)C(=O)[C@H]1CC[C@H](NS(=O)(=O)c2ccc3cc(-c4ccc(CO)cc4)n(C)c3c2)CC1 [Example 349, (1r,4r)-N-ethyl-4-(2-(4-(hydroxymethyl)phenyl)-1-methyl-1H-indole-6-sulfonamido)-N-methylcyclohexanecarboxamide] | 0.1
10 | C[C@H]1COCCN1C(=O)[C@H]1CC[C@H](NS(=O)(=O)c2ccc3c(C#N)c(C4CC4)n(C)c3c2)CC1 [Example 421, 3-cyano-2-cyclopropyl-1-methyl-N-((1S,4r)-4-((S)-3-methylmorpholine-4-carbonyl)cyclohexyl)-1H-indole-6-sulfonamide] | 0.05
11 | CCCN(C)C(=O)[C@H]1CC[C@H](NS(=O)(=O)c2ccc3[nH]c(-c4ccc(N5CCN(C)CC5)cc4)nc3c2)CC1 [Example 565, (1r,4r)-N-methyl-4-(2-(4-(4-methylpiperazin-1-yl)phenyl)-1H-benzo[d]imidazole-5-sulfonamido)-N-propylcyclohexanecarboxamide] | 0.048
12 | CN1CCN(c2ccc(-c3nc4cc(S(=O)(=O)N[C@H]5CC[C@H](C(=O)N6CCOCC6)CC5)ccc4[nH]3)cc2)CC1 [Example 583, 2-(4-(4-methylpiperazin-1-yl)phenyl)-N-((1r,4r)-4-(morpholine-4-carbonyl)cyclohexyl)-1H-benzo[d]imidazole-5-sulfonamide] | 0.055
13 | CC(C)c1nnc([C@H]2CC[C@H](NS(=O)(=O)c3ccc4[nH]c(-c5ccc(N6CCOCC6)cc5)nc4c3)CC2)o1 [Example 589, N-((1r,4r)-4-(5-isopropyl-1,3,4-oxadiazol-2-yl)cyclohexyl)-2-(4-morpholinophenyl)-1H-benzo[d]imidazole-5-sulfonamide] | 0.516

More lines, now with the values ahead:

Row | IC50 [µM] | SMILES
14 | 0.06 | Cn1c(-c2ccc(F)cc2)cc2ccc(S(=O)(=O)N[C@H]3CC[C@H](C(=O)N4CCNC(C(F)(F)F)C4)CC3)cc21 (stereo partly drawn) [Example 344, 2-(4-fluorophenyl)-1-methyl-N-((1r,4r)-4-(3-(trifluoromethyl)piperazine-1-carbonyl)cyclohexyl)-1H-indole-6-sulfonamide]
15 | 0.015 | Cc1cc(-c2ccc3cc(S(=O)(=O)N[C@H]4CC[C@H](C(=O)N[C@H](C)c5ccc(F)cc5)CC4)ccc3n2)cc(C)n1 [Example 227, (1r,4R)-4-(2-(2,6-dimethylpyridin-4-yl)quinoline-6-sulfonamido)-N-((R)-1-(4-fluorophenyl)ethyl)cyclohexanecarboxamide]
16 | 0.055 | C[C@@H](NC(=O)[C@H]1CC[C@H](NS(=O)(=O)c2ccc3c(ccn3C)c2)CC1)c1ccc(F)cc1 [Example 12, (1r,4R)—N—((R)-1-(4-fluorophenyl)ethyl)-4-(1-methyl-1H-indole-5-sulfonamido)cyclohexanecarboxamide]
17 | 0.29 | C[C@@H](NC(=O)[C@H]1CC[C@H](NS(=O)(=O)c2ccc3c(c2)NCCN3)CC1)c1ccc(F)cc1 [Example 149, (1r,4R)-N-((R)-1-(4-fluorophenyl)ethyl)-4-(1,2,3,4-tetrahydroquinoxaline-6-sulfonamido)cyclohexanecarboxamide]
18 | 0.212 | C[C@@H](NC(=O)[C@H]1CC[C@H](NS(=O)(=O)c2ccc3ncsc3c2)CC1)c1ccc(F)cc1 [Example 113, (1r,4R)-4-(benzo[d]thiazole-6-surfonamido)-N-((R)-1-(4-fluorophenyl)ethyl)cyclohexanecarboxamide]
19 | 0.04 | C[C@@H](NC(=O)[C@]1(C)CC[C@@H](NS(=O)(=O)c2cnc3c(c2)NCCN3)CC1)c1ccc(F)cc1 [Example 197, (1r,4R)-N-((R)-1-(4-fluorophenyl)ethyl)-1-methyl-4-(1,2,3,4-tetrahydropyrido[3,2-b]pyrazine-7-sulfonamido)cyclohexanecarboxamide]
20 | 0.071 | COCCn1c(-c2ccccc2)nc2cc(S(=O)(=O)N[C@H]3CC[C@H](C(=O)N[C@H](C)c4ccc(F)cc4)CC3)ccc21 [Example 126, (1r,4R)-N-((R)-1-(4-fluorophenyl)ethyl)-4-(1-(2-methoxyethyl)-2-phenyl-1H-benzo[d]imidazole-5-sulfonamido)cyclohexanecarboxamide]
21 | 0.225 | C[C@@H](NC(=O)[C@H]1CC[C@H](NS(=O)(=O)c2cnc3c(c2)N(C(=O)OC2CCCCC2)CCN3)CC1)c1ccc(F)cc1 [Example 210, cyclohexyl 7-(N-((1R,4r)-4-((R)-1-(4-fluorophenyl)ethylcarbamoyl)cyclohexyl)sulfamoyl)-3,4-dihydropyrido[3,2-b]pyrazine-1(2H)-carboxylate]
